Results on 5 compounds are retold here after US20120142682A1, “ANT[…] INHIBITING BACTERIAL MONO-ADP-RIBOSYLT[…]” (UNIVERSITY OF GUELPH, priority 2010, published 2012).

The test system of data set [1] is ExoA intoxicated C38 cells. Format: cell-based, Human.
For data set [2], the system named is Saccharomyces cerevisiae cells expressing the catalytic domain of P. aeruginosa ExoA (ExoAc). In words: Yeast-based compound screen. Format: cell-based. To be noted: compound 50 μM; w303 strain; growth restored.
In data set [3] the test system is C38 cells in the presence of 650 ng/mL of ExoA. Description: Determination of half-maximal effective concentration (EC50) in C38 cells. The data set is classed as cell-based, Human. To be noted: 96 h. As for the experimental part: Cell viability was determined using the same method as the cytoprotection assay. The EC50 values were extrapolated from each corresponding line-of-best-fit (Sigmoidal function in Origin 6.1), and the average values reported±the standard deviation.

The target in a further data set is WT ExoAc (Pseudomonas aeruginosa, UniProt P11439). In words: biochemical. The data set is classed as binding, P. aeruginosa.
Another data set addresses cholix toxin (Vibrio cholerae, UniProt Q5EK40). Description: biochemical. The data set is classed as biochemical.
Another data set has as its system C38 cells. Description: Mammalian C38 cell drug sensitivity assay (MTT). Format: cell-based, Human. To be noted: compound 50 μM. As for the experimental part:
The C38 cells were cultured in 25 cm^2 culture flasks containing LHC-8 media with 5% fetal bovine serum at 37° C. in 5% CO2 until 90-100% confluency. The cells were washed with phosphate-buffered saline (PBS) and then detached from the culture flask by treating the cells with Puck's Saline Solution containing 0.02% EDTA. The cell suspension was diluted to a final density of 1.0×10^5 cells/mL and 100-μL aliquots were used to seed a 96-well plate. The cells were then grown in the presence of 50 μM of inhibitor (nonpolar compounds required 0.5% DMSO for solubility).

Read-outs that look alike come from different tables or passages of the source.

cholix toxin, sequence (Q5EK40 33-666 limits assumed): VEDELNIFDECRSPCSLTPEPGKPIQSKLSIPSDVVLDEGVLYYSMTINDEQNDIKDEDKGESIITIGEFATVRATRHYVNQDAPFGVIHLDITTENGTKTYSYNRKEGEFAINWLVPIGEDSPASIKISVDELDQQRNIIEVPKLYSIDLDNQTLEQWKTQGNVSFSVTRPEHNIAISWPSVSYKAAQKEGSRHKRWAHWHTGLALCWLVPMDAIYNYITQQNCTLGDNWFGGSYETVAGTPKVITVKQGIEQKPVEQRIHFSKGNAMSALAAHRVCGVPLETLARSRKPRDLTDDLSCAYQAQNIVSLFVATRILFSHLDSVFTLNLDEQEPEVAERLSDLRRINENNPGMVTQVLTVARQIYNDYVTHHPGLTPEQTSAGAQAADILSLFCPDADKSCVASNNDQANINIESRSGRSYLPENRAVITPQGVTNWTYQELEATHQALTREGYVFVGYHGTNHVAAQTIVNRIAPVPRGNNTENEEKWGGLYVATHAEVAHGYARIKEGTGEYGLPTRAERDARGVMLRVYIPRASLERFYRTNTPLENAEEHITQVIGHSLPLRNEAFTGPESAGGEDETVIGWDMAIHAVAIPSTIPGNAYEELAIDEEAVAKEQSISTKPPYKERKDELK
WT ExoAc, sequence (P11439 430-638 limits assumed): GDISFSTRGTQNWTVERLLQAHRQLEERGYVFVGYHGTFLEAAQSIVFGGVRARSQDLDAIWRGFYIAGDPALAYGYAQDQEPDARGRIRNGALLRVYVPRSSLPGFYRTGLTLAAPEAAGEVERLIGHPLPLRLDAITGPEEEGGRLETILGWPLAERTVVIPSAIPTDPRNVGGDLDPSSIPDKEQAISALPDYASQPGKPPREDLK

By EC50 is commonly meant the concentration needed to bring the measured effect to its halfway point. As a reminder, the Kd is the free concentration of one partner at which half of the binding sites on the other are occupied at equilibrium, for simple one-to-one binding. Usually Ki stands for a dissociation constant, usually derived from enzyme kinetics or from competition with a known ligand. With `O=C1NN=C(CN2CCOCC2)c2c[nH]c3cccc1c23` [Compound P1], the “protection of C38 cells from lethal action of high dose ExoA (morphology)” value in data set [1] is given as “completely protected”. Moreover, in data set [2], the “Protection in Yeast” value was “− (Compounds showing less than 5% growth were scored (−))”. Besides, the EC50 in data set [3] (650 ng/ml ExoA (10-times LD50), NAP and V30 with 0.5% DMSO) was 2900 ± 800 nM. Moreover, the “difference in affinity between the two binding sites” value at WT ExoAc is reported as roughly 50 fold. For the same compound, the Kd on WT ExoAc (read-out: Kd) is 10 nM; on WT ExoAc (read-out: Kd, second (lower affinity) binding constant (converted)), 650 nM. At cholix toxin (read-out: Ki), the Ki was 22 ± 4 nM.
Usually IC50 stands for the concentration that inhibits the measured activity by half. Turning to `CN(C)CCCOc1ccc(-c2nc3cccc4c3n2CCNC4=O)cc1` [Compound P2], the “Protection in Yeast” value in data set [2] is reported as “− (Compounds showing less than 5% growth were scored (−))”. Besides, on WT ExoAc (read-out: Kd), the dissociation constant (Kd) was found to be 260 ± 10 nM. The IC50 at cholix toxin (read-out: IC50) was 480 ± 40 nM. The Ki at cholix toxin (read-out: Ki) was found to be 63 ± 5 nM. Further, in the data set on C38 cells, the “toxicity to C38 cells” value is recorded as “toxic”.
On the same counts, the results for `CN1CCN(C2CCC3NC(O)C4CCCCC4C3N2)CC1` (centres unmarked) [Compound P3] are “− (Compounds showing less than 5% growth were scored (−))”, 1470 ± 30 nM, 690 ± 130 nM, 90 ± 17 nM and “toxic”.
Regarding `O=c1[nH]nc2c3c(cccc13)N=CN2` [Compound P7], the “Protection in Yeast” value in data set [2] is “− (Compounds showing less than 5% growth were scored (−))”. Besides, the Kd at WT ExoAc (read-out: Kd) was determined as 680 ± 40 nM. The IC50 on cholix toxin (read-out: IC50) worked out at 908 ± 118 nM. For the same compound, on cholix toxin (read-out: Ki), the Ki is 118 ± 7 nM. The “toxicity to C38 cells” value in the data set on C38 cells is recorded as “toxic”.
For the compound `CC1=C(C)C2C(=O)CC(SCC(=O)NCCO)=CC2S1` (centres unmarked) [Compound V30], in data set [1], the “protection of C38 cells against ExoA (in words)” value was “excellent protection” and the “protection of C38 cells from lethal action of high dose ExoA (morphology)” value is recorded as “completely protected”. Also, the “Protection in Yeast” value in data set [2] was “− (Compounds showing less than 5% growth were scored (−))”. The EC50 in data set [3] (Homo sapiens) worked out at 8800 ± 500 nM. For the same compound, the affinity on WT ExoAc, expressed as Kd, was 931 ± 74 nM. Moreover, at cholix toxin, 2810 nM corresponded to half-maximal inhibition (IC50) and the affinity, expressed as Ki, was 367 ± 3 nM.
